Reference: PMC5476563, “Structure-Guided Design of C4-alkyl-1,4-dihydro-2H-pyrimido[4,5-d][1,3]oxazin-2-ones as Potent and Mutant-Selective Epidermal Growth Factor Receptor (EGFR) L858R/T790M Inhibitors” (Scientific Reports, 2017)
Where “and” joins values, the source holds several entries; their conditions need not be identical. Equal values may be shown once.

What was measured:
[1] = target: T1, EGFR^L858R/T790M (Homo sapiens, UniProt P00533, L858R/T790M); experiment: ELISA-based EGFR-TK enzymatic activity assay (dual mutant); type: biochemical; settings: for IC50: ELISA-based EGFR-TK assay, mean ± SD, at least three determinations, read-out: Enzyme Inhibitory Activity (IC50, nM) L858R/T790M; for Enzyme Selectivity WT:DM: ratio IC50 EGFR^WT : EGFR^L858R/T790M
T1 construct: Kinases domain of EGFR^L858R/T790M and EGFR^WT were expressed by using the Bac-to-Bac™ baculovirusexpression system; made in house
T1 sequence (P00533 712-979 T790M/L858R limits assumed): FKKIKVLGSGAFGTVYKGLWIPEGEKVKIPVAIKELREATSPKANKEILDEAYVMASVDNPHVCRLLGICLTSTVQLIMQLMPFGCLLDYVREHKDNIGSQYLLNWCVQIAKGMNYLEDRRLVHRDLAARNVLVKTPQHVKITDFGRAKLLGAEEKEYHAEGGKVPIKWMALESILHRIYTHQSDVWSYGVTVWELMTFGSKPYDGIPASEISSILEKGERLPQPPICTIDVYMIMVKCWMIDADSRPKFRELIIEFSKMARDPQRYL
Experimental: (§1) The enzymatic activity assay was evaluated by using the well-established ELISA-based assay. […] The detailed experiment was performed according to the published literature.

[2] = target: T2, EGFR^WT (Homo sapiens, UniProt P00533); experiment: ELISA-based EGFR-TK enzymatic activity assay (WT); type: biochemical; settings: mean ± SD, at least three determinations, read-out: Enzyme Inhibitory Activity (IC50, nM) WT
T2 construct: Kinases domain of EGFR^L858R/T790M and EGFR^WT were expressed by using the Bac-to-Bac™ baculovirusexpression system; made in house
T2 sequence (P00533 712-979 limits assumed): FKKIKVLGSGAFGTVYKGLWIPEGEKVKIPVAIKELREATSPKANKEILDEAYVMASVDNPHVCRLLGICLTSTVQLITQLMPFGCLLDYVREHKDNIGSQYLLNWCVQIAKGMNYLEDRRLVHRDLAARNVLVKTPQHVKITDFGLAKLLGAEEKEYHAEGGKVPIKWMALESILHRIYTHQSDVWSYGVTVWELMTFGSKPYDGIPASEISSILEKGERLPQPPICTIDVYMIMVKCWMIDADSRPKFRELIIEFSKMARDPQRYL
Experimental: In vitro antiproliferation activities of the compounds were examined through using the sulforhodamine B (SRB) colourimetric assay.
as §1

[3] = tested on: A431 cells (expressing EGFR^WT); experiment: Sulforhodamine B (SRB) cellular antiproliferation assay, A431; type: cell-based; settings: Homo sapiens, A-431, 72 h, mean ± SD, read-out: Cellular Antiproliferative Activity (IC50, nM) A431
From the text: (§2) Having explored potent inhibition and obvious selectivity of EGFR kinases by introduction of alkyl groups to C4-position to the 1,4-dihydro-2H-pyrimido[4,5-d][1,3]oxazin-2-one ring, we subsequently evaluated their anti-proliferative activities in H1975 cells (expressing EGFR^L858R/T790M) and A431 cells (expressing EGFR^WT) in vitro by using the sulforhodamine B (SRB) colourimetric assay. The anti-proliferative activities of our designed compounds against H1975 and A431 cell lines range from 135 nM to more than 9 μM and from 554 nM to more than 7 μM, respectively (Fig. 5). Additionally, the selectivity at the cellular level is from 0.7 to 9.4-fold.
(§3) In vitro cellular antiproliferation activities of the designed compounds against H1975 and A431 cell lines were examined by using the well-established sulforhodamine B (SRB) colorimetric assay. The detailed experiment was performed according to the published literature. Briefly, H1975 and A431 cells were seeded in 96-well plates, and allowed to adhere overnight followed by treated with gradient concentrations of the test compounds for 72 h. […] The IC50 values were obtained by using the Logit method and reported as the mean ± SD from three independent determinations.

[4] = tested on: H1975 cells (expressing EGFR^L858R/T790M); experiment: Sulforhodamine B (SRB) cellular antiproliferation assay, H1975; type: cell-based; settings: for IC50: Homo sapiens, NCI-H1975, SRB assay, 72 h, mean ± SD, read-out: Cellular Antiproliferative Activity (IC50, nM) H1975; for Cellular Selectivity A431:H1975: ratio IC50 A431 : H1975
From the text: as §2, §3

[5] = tested on: H1975 xenograft driven by EGFR^L858R/T790M; experiment: In vivo antitumor efficacy, H1975 NSCLC xenograft mouse model; parameters: species or system nude mice; settings: 14 days; for tumor growth inhibition (TGI): 50 mg/kg orally once per day, final day vs vehicle, P < 0.05
Experimental: H1975 cells were implanted as described in Methods. […] H1975 xenograft mouse model tumor volumes (A) and body weights (B) were recorded every two or three days. All values represent mean ± SEM.
All experimental procedures involving animals were performed in accordance with the ethical guidelines from Shanghai Laboratory Animal Public Service Center and Animal Ethics Committee of the East China University of Science and Technology. The whole experimental protocol was also approved by the Animal Ethics Committee of the East China University of Science and Technology. All 4–6 weeks old nude mice were purchased from Shanghai Slac Laboratory Animal Co. Ltd (The license of experimental animal: SCXK (shanghai) 2012–0002). The mice were maintained under the 12 hour light/dark cycles condition in the specific pathogen free (SPF) cleanroom with fresh air (more than 50%), appropriate temperature (22–26 °C) and humidness (40–60%). All materials and containers were disinfected and sterilized before use. Nude mice, aged 4–6 weeks, were inoculated subcutaneously into the right flank with H1975 NSCLC cells (approximately 2 × 10^6 cells/mouse). When the tumor size reached a volume of ~200−400 mm^3, animals were randomly assigned into control and treated groups (n = 3/group). […] The sizes of tumor volume (V) were measured every two or three days by using vernier caliper, and were calculated with the formula V = (L × W^2)/2, where L and W stands for length and width, respectively.

[6] = tested on: phosphorylation of EGFR^L858R/T790M, AKT and ERK in H1975 cells; experiment: Western blot analysis of EGFR and downstream signaling phosphorylation, H1975; type: cell-based; settings: 2 h incubation, EGF 50 ng/mL 10 min
Experimental: (§4) Cells were starved in serum-free medium for 24 h before incubation of indicated concentrations of compounds 20a and 8 (positive control) and harvested after stimulation by EGF (50 ng/mL) for 10 min. Phosphorylation of EGFR and downstream signaling substrates was examined by Western Blot analysis. Blot source data is provided in Supplementary Fig. S1.
(§5) Western blot analysis was performed with standard procedures. Briefly, H1975 and A431 cell lines were seeded in six-well plates, starved in serum-free medium for 24 h, followed by incubation for 2 h in the presence of different concentrations of compounds 20a and 8 (as positive control). Cells were stimulated by the addition of EGF (50 ng/mL, R&D Systems, US) for 10 min, then washed with PBS and lysed in SDS lysis buffer. Antibodies against p-EGFR (Y1068; #3777 S), EGFR (#4267 S), p-ERK (T202/Y204; #4370 L), ERK (#4695 S), p-AKT (Ser473), AKT and Tubulin were used (Cell Signaling Technologies, Cambridge, MA).

[7] = tested on: activation of EGFR^WT in A431 cells; experiment: Western blot analysis of EGFR phosphorylation, A431; type: cell-based
Experimental: as §4, §5

[8] = target: T1, EGFR^L858R/T790M; parameters: method as in PMID 27396610; settings: previously reported; cited from earlier work

Row | SMILES | IC50 [1] [nM] | Enzyme Selectivity WT:DM [1] | IC50 [2] [nM] | IC50 [3] [nM] | IC50 [4] [nM] | Cellular Selectivity A431:H1975 [4] [fold] | tumor growth inhibition (TGI) [5] [%] | effect on body weight / tolerability ([5]; 50 mg/kg/day orally) | concentration inhibiting ERK phosphorylation [6] [nM] | concentration inhibiting phosphorylation of AKT [6] [nM] | concentration inhibiting phosphorylation of EGFR^L858R/T790M [6] [nM] | concentration at which obvious effect on EGFR activation appears [7] [µM] | selectivity EGFR^L858R/T790M kinase over EGFR^WT kinase [8] [fold]
1 | C=CC(=O)Nc1cccc(N2C(=O)OC(C)c3cnc(Nc4ccc(N5CCN(C)CC5)cc4OC)nc32)c1 (centres unmarked) [16a, N-(3-(7-((2-Methoxy-4-(4-methylpiperazin-1-yl)phenyl)amino)-4-methyl-2-oxo-2H-pyrimido[4,5-d][1,3]oxazin-1(4H)-yl)phenyl)acrylamide] | 5.4 | 4–7 fold and 7 fold | 38 | 821 ± 162 | 400 ± 257 | 2.1 | – | – | – | – | – | – | –
2 | C=CC(=O)Nc1cccc(N2C(=O)OC(CC)c3cnc(Nc4ccc(N5CCN(C)CC5)cc4OC)nc32)c1 (centres unmarked) [16b, N-(3-(4-Ethyl-7-((2-methoxy-4-(4-methylpiperazin-1-yl)phenyl)amino)-2-oxo-2H-pyrimido[4,5-d][1,3]oxazin-1(4H)-yl)phenyl)acrylamide] | 6.1 | 4–7 fold and 3.8 fold | 23 ± 10 | 554 ± 285 | 200 ± 83 | 2.8 | – | – | – | – | – | – | –
3 | C=CC(=O)Nc1cccc(N2C(=O)OC(CCC)c3cnc(Nc4ccc(N5CCN(C)CC5)cc4OC)nc32)c1 (centres unmarked) [16c, N-(3-(7-((2-Methoxy-4-(4-methylpiperazin-1-yl)phenyl)amino)-2-oxo-4-propyl-2H-pyrimido[4,5-d][1,3]oxazin-1(4H)-yl)phenyl)acrylamide] | 158 ± 27 | 1.4 fold | 224 ± 41 | 2110 ± 877 | 1340 ± 791 | 1.6 | – | – | – | – | – | – | –
4 | C=CC(=O)Nc1cccc(N2C(=O)OC(C(C)C)c3cnc(Nc4ccc(N5CCN(C)CC5)cc4OC)nc32)c1 (centres unmarked) [16d, N-(3-(7-((2-Methoxy-4-(4-methylpiperazin-1-yl)phenyl)amino)-2-oxo-4-isopropyl-2H-pyrimido[4,5-d][1,3]oxazin-1(4H)-yl)phenyl)acrylamide] | 217 ± 86 | 0.8 fold | 183 ± 47 | 1160 ± 279 | 1110 ± 748 | 1.0 | – | – | – | – | – | – | –
5 | C=CC(=O)Nc1cccc(N2C(=O)OCc3cnc(Nc4ccc(N5CCN(C)CC5)cc4OC)nc32)c1 [16e, N-(3-(7-((2-Methoxy-4-(4-methylpiperazin-1-yl)phenyl)amino)-2-oxo-2H-pyrimido[4,5-d][1,3]oxazin-1(4H)-yl)phenyl)acrylamide] | 7.3 | 3.3 fold | 24 | 1070 ± 241 | 222 ± 84 | 4.8 | – | – | – | – | – | – | –
6 | C=CC(=O)Nc1cccc(N2C(=O)OC(C)(C)c3cnc(Nc4ccc(N5CCN(C)CC5)cc4OC)nc32)c1 [20a, N-(3-(7-((2-Methoxy-4-(4-methylpiperazin-1-yl)phenyl)amino)-4,4-dimethyl-2-oxo-2H-pyrimido[4,5-d][1,3]oxazin-1(4H)-yl)phenyl)acrylamide] | 4.5 | ~35 fold | 156 | 1270 | 135 | 9.4 | 71 | no obvious effect on the body weight | 100 | 10 | 10 | 1 | –
7 | C=CC(=O)Nc1cccc(N2C(=O)OC(CC)(CC)c3cnc(Nc4ccc(N5CCN(C)CC5)cc4OC)nc32)c1 [20b, N-(3-(4,4-Diethyl-7-((2-methoxy-4-(4-methylpiperazin-1-yl)phenyl)amino)-2-oxo-2H-pyrimido[4,5-d][1,3]oxazin-1(4H)-yl)phenyl)acrylamide] | > 1000 | – | > 1000 | 7040 ± 455 | 3710 ± 1370 | 1.9 | – | – | – | – | – | – | –
8 | C=CC(=O)Nc1cccc(N2C(=O)OC(CCC)(CCC)c3cnc(Nc4ccc(N5CCN(C)CC5)cc4OC)nc32)c1 [20c, N-(3-(7-((2-Methoxy-4-(4-methylpiperazin-1-yl)phenyl)amino)-2-oxo-4,4-dipropyl-2H-pyrimido[4,5-d][1,3]oxazin-1(4H)-yl)phenyl)acrylamide] | > 1000 | – | > 1000 | 6400 ± 349 | 9390 ± 1740 | 0.7 | – | – | – | – | – | – | –
9 | C=CC(=O)Nc1cccc(Nc2nc(Nc3ccc(N4CCN(C(C)=O)CC4)cc3OC)ncc2C(F)(F)F)c1 [compound 7, CO-1686, reference compound] | – | – | – | 1120 ± 117 | 73 ± 21 | – | 72 | – | – | – | – | – | –
10 | C=CC(=O)Nc1cccc(-n2c(=O)c(=O)n(C)c3cnc(Nc4ccc(N5CCN(C)CC5)cc4OC)nc32)c1 [compound 9] | – | – | – | – | – | – | – | – | – | – | – | – | 101
